Results on two compounds are retold here after patent publication US10881642B2, “Autophagy enhancer and use thereof” (Industry-Academic Cooperation Foundation, Yonsei University, priority 2016, dated 2021).

For one assay, the system named is HFD-fed hIAPP+ mice. Kind of assay: Metabolic profile and islet amyloid of HFD-fed hIAPP+ mice. Type of assay: in vivo. How it is done:
(FIG. 13A) INS-1 cells transfected with non-amyloidogenic prepro-mIAPP-HA or amyloidogenic prepro-hIAPP-HA construct were treated with MSL or MSL-7 followed by western blot analysis using anti-HA antibody. (FIG. 13B) the transfected cells of (FIG. 13A) were treated with MSL-7 in the presence or absence of bafilomycin followed by western blot analysis using anti-HA antibody. (FIG. 13C) The transfected cells were treated with MSL-7 in the presence or absence of 3-MA, after which the amount of […] contained in the cell lysates were measured. (FIG. 13D) HFD-fed hIAPP+ mice were administered with MSL-7, and non-fasting glucose level was monitored. (FIG. 13E) IPGTT. (FIG. 13F) HFD-fed hIAPP+ mice were administered with MSL-7 for 8 weeks and the insulinogenic index was measured. (FIG. 13G) HFD-fed hIAPP+ mice were administered with MSL-7 for 8 weeks and the pancreatic section was obtained. All antibody was used for immunohistochemistry (left). The percentage of A11-[…] cells among DAPI+ cells (right). (FIG. 13H) FSB stained pancreatic section of HFD-fed hIAPP+ mice administered with MSL-7 for 8 weeks (left). Average fluorescence intensity/area (right).
Screening of autophagy enhancer. […] Luciferase assay. Firefly and Renilla luciferase assays were conducted using the Dual-Luciferase Reporter Assay System (Promega) according to the manufacturer's recommendation. In brief, cells were lysed in 1× lysis buffer and subjected to a single round of freezing/thawing. Firefly luciferase was determined after mixing 5 μl of lysate with 25 μl of Luciferase Assay Reagent II. Renilla luciferase was then determined after further addition of 20 ul of Stop&Glo Reagent. Cell culture and media and drugs treatment. HeLa, TFEB-GFP-HeLa, SK-HEP1 (hepatoma cell line) and Hepa1c1c7 (hepatoma cell line) cells were cultured in the following media: (normal) Dulbecco's modified Eagle's medium (DMEM, Sigma-Aldrich) supplemented with 10% FBS and 1% penicillin/streptomycin; (starvation) HBSS media with Ca and Mg supplemented with 10 mM HEPES; Drugs treatment: MSL compound (50-100 μM); Rapamycin ([…]); Torin-1 (1 μM); Bafilomycin (100 nM); Cyclosporin A (10 μM); and FK506 (5 μM). Cells were treated with oleic acid (400 μM) and palmitic acid (400 μM) for 24 h. Where indicated, cells were washed off with HBSS and replaced by DMEM with or without MSL for 16 h. INS-1 cells, a insulinoma cell line of […] were cultured as described previously (Kim et al., 2014 ibid) in the presence or absence of bafilomycin and treated with MSL-7. Lactate dehydrogenase (LDH) assay. Cytotoxicity was determined by the measurement of LDH release in cell culture media using the LDH kit (Roche), according to the protocol from the manufacturer. Transfection and plasmids. Cells were transiently transfected with DNA plasmids 3×FLAG-hTFEB (A Ballabio), FYVE-dsRed (Cantley LC), RFP-LC3 or mRFP-GFP-LC3 using lipofectamine 2000 (Invitrogen) according to the protocol from the manufacturer. […] Imaging and image quantification. […] Formation of acidic vesicular organelles was quantitated by staining the cells with acridine orange (Invitrogen, 5 ug/ml, 10 min). […] Cells or tissues were solubilized in lysis buffer supplemented with protease and phosphatase inhibitors and protein concentration was measured by the Bradford method. Ten to 30 micrograms were loaded on 4-12% Bis-Tris gel (NUPAGE, Invitrogen) or 8-15% SDS-PAGE, transferred to PVDF membranes and analyzed by western blot using the ECL method (Pierce). […]

The test system of the next assay is Hepa1c1c7 cells. In words: Lipid droplet clearance after PA and OA loading. Type of assay: cell-based.

Each structure is given as a SMILES string.

As to `COc1oc(-c2ccccc2Cl)nc1S(=O)(=O)c1ccccc1` [MSL-7, 2-(2-chlorophenyl)-5-methoxy-4-(phenylsulfonyl) oxazole], the non-fasting glucose level result with HFD-fed hIAPP+ mice was “significantly reduced”. In the assay with HFD-fed hIAPP+ mice (8-week administration), the “FSB-stained pancreatic islet amyloid” value was “similarly reduced” and the “accumulation of hIAPP oligomer (A11 antibody)” value is “significantly reduced”. For the same compound, in the assay with HFD-fed hIAPP+ mice (8 week treatment), the “Glucose intolerance (IPGTT)” value is listed as “significantly improved” and the insulinogenic index result is on record as “significantly improved”.
Turning to `CSc1oc(-c2ccccc2)nc1S(=O)(=O)c1ccc(F)cc1` [MSL], in the assay on Hepa1c1c7 cells, the “lipid content in cells loaded with PA and OA” value was “significantly reduced”. Besides, the “content of lipid droplets stained BODIPY” value in the assay with Hepa1c1c7 cells (PA and OA loaded, 16 h) is “significantly decreased”.
